# According to patent US9522930B2, “Chartreusin analogues” (Leibniz-Institut Für Naturstoff-Forschung Und …, priority 2012, dated 2016):
# Like-named read-outs stand apart in the source and are kept apart here.
# Key:
# [1] = tested on: vancomycin-resistant Enterococcus (VRE); assay: VRE assay (MIC); type: cell-based; conditions: read-out: MIC against VRE
# [2] = tested on: Hs27 foreskin fibroblast cells (ATCC, CRL-1634); assay: Growth inhibition of Hs27 in the presence or absence of light; type: cell-based, human; conditions: for GI50: Homo sapiens, 72 hours
# From the text: In order to verify the extraordinary in vitro photo induced activity a human foreskin fibroblast cell line (Hs27) has been chosen to evaluate the antiproliferative activity against human cells. During this assay a control group without light has been tested under standard conditions. One group was irradiated with a very homogenous LED cluster under the same conditions. […] This indicates the high potential of this new chartreusin-like structure motive as a drug for epithel cell carcinomas. Not only superficial areas like the skin in case of melanoma can be irradiated also endoscopic accessible areas like the bladder, colon, esophageal or laryngeal cancers are conceivable for a treatment.
# The Hs27 foreskin fibroblast cells (ATCC, CRL-1634) were grown in RPMI 1640 (CAMBREX 12-167F) supplemented with 500 μl/l gentamicin sulfate (Cambrex 17-518Z), 10% heat inactivated fetal bovine serum (PAA A15-104), at 37° C. in plastic flasks (NUNC) in a humidified atmosphere containing 5% CO2.
# The adherent cells of Hs27 were harvested at the logarithmic growth phase after soft trypsinization using 0.25% trypsin in PBS containing 0.02% EDTA (Biochrom KG L2163).
# Hs27 cells were seeded with 1×10^4 cells per 0.1 mL per well of the 96-well microplates (NUNC 167008). Then, the plates were prepared with dilutions of the compounds.
# The influence of the different dilutions of compounds in the absence or presence of light (distance to the cells: 4 cm) were assayed for 72 hours at 37° C. in a humidified atmosphere containing 5% CO2. After incubation time, the effect of compounds in the absence or presence of light were analyzed in compare to negative control.
# For this, the adherent Hs27 cells were fixed by glutaraldehyde (MERCK 1.04239.0250) and stained with a 0.05% solution of methylene blue (SERVA 29198) for 15 min. After gentle washing, the stain was eluted by 0.2 mL of 0.33 N HCl in the wells. The optical densities were measured at 660 nm in a microplate reader (Tecan “Sunrise”, Austria). Under the experimental conditions, the signals from the methylene blue are proportional to the number of viable cells.
# [3] = tested on: human HT-29 colon adenocarcinoma cells (ACC 299); assay: Growth inhibition of HT-29 in the presence or absence of light; type: cell-based
# Experimental: (§1) The human HT-29 colon adenocarcinoma cells (ACC 299) and the human MEL-HO (ACC 62) melanoma cells were grown as previously described (Ueberschaar, N.; Dahse, H.-M.; Bretschneider, T.; Hertweck, C. Angew. Chem. Int. Ed. 2013, 52, 6185-6189).
# in vitro = conditions: human
# Experimental: (§2) Compounds were assayed against human umbilical vein endothelial cells HUVEC (ATCC CRL-1730) and human chronic myeloid leukemia cells K-562 (DSM ACC 10) for their antiproliferative effects (GI50) and against human cervix carcinoma cells HeLa (DSM ACC 57) for their cytotoxic effects (CC50) as previously described (Scherlach, K., Partida-Martinez, L. P., Dahse, H. M. & Hertweck, C. Antimitotic rhizoxin derivatives from a cultured bacterial endosymbiont of the rice pathogenic fungus Rhizopus microsporus. Journal of the American Chemical Society 128, 11529-11536 (2006)).
# [4] = tested on: human umbilical vein endothelial cells HUVEC (ATCC CRL-1730); assay: Growth inhibition (antiproliferative effect) of HUVEC; type: cell-based; conditions: for GI50: Homo sapiens, read-out: antiproliferative GI50, HUVEC
# Experimental: as §2
# [5] = tested on: defined DNA fragments (1.5 kb); assay: Laser-induced DNA-adduct assay, gel electrophoresis with a specified DNA fragment; conditions: 1% agarose gel; for electrophoretic band shift of DNA fragment, irradiated: blue laser 405 nm, 20 mW, 30 sec
# Experimental: However, the situation changed substantially under photoinducing conditions. A GaN laser has been used for an induced DNA-adduct assay because a laser warrants high spectral purity combined with a high power density. Furthermore, the emission wavelength (405 nm) fits to the absorption maximum of chartreusin, which is a prerequisite to efficiently activating the molecule.
# For the assay defined DNA fragments (1.5 kb) were treated with either chartreusin or 1-vinylchartreusin, and the effect of blue laser irradiation was compared to negative controls incubated in the dark or with daylight.
# DNA-Adduct formation was carried out using a pure specified DNA fragment with the following sequence:
# 8 μL of water, 2 μL of DNA (25.7 ng/μL) were either directly treated with 2 μL loading buffer or were treated additionally with 0.1 μL (1 mg/mL in DMSO) substrate. The solution was irradiated with a laser (405 nm, 20 mW) for 30 sec. and then treated with loading buffer. The DNA was loaded on 1% agarose gel with ethidium bromide operating at 120 V (FIG. 2).
# [6] = tested on: human chronic myeloid leukemia cells K-562 (DSM ACC 10); assay: Growth inhibition (antiproliferative effect) of K-562; type: cell-based; conditions: for GI50: Homo sapiens, K562, read-out: antiproliferative GI50, K-562
# Experimental: as §2
# [7] = tested on: Mycobacterium vaccae 10670; assay: Antimicrobial activity (MIC), test strain Mycobacterium vaccae 10670; type: cell-based; conditions: Mycolicibacterium vaccae; Test strain: Mycobacterium vaccae 10670; read-out: Antimicrobial MIC value, Mycobacterium vaccae
# From the text: Antimicrobial (MIC value [μM]), cytotoxic (CC50 [μM] for HeLa) and antiproliferative (GI50 [μM] for HUVEC, K-562, HT-29 and MEL-HO) activities of chartreusin and its derivatives. Test strain: Mycobacterium vaccae 10670.
# [8] = tested on: human MEL-HO (ACC 62) melanoma cells; assay: Growth inhibition of MEL-HO in the presence or absence of light; type: cell-based
# Experimental: as §1
# [9] = tested on: human cervix carcinoma cells HeLa (DSM ACC 57); assay: Cytotoxicity against HeLa; conditions: HeLa, standard conditions
# Experimental: as §2
# [10] = Cytotoxicity against HeLa; conditions: human, HeLa cells (human cervix carcinoma, DSM ACC 57)
# Experimental: as §2
# [11] = tested on: methicillin-resistant Staphylococcus aureus (MRSA); assay: Antibiotic activity against MRSA; type: cell-based
# [12] = Hs27, with light vs without light
# [13] = Homo sapiens, HT-29, 8 h, HT-29, 420 nm, 3 × 8 h, read-out: antiproliferative GI50, HT-29, 420 nm, 3 × 8 h
# [14] = Homo sapiens, HT-29, HT-29, w/o light, read-out: antiproliferative GI50, HT-29, w/o light
# [15] = Homo sapiens, HT-29, HT-29, with light (blue LED), read-out: GI50 with light, HT-29
# [16] = Homo sapiens, HT-29, HT-29, without light (absence of light), read-out: GI50 without light, HT-29
# [17] = 8 h, read-out: antiproliferative GI50, Mel-HO, 420 nm, 3 × 8 h
# [18] = read-out: antiproliferative GI50, Mel-HO, w/o light
SMILES,MIC [1] [µM],"GI50 [3, 13] [µM]","GI50 [3, 14] [µM]","GI50 [3, 15] [µM]","GI50 [3, 16] [µM]",GI50 [4] [µM],"electrophoretic band shift of DNA fragment, irradiated [5]",GI50 [6] [µM],MIC [7] [µM],"GI50 [8, 17] [µM]","GI50 [8, 18] [µM]",other results
CO[C@H]1[C@@H](O)[C@@H](C)O[C@H](O[C@H]2[C@H](Oc3cccc4c(O)c5c(=O)oc6ccc(C)c7c(=O)oc(c34)c5c67)O[C@H](C)[C@H](O)[C@@H]2O)[C@@H]1O [Chartreusin],9.59 to 9.76,7.65,7.96,7.65,7 to 9.4,6.24,electrophoretic properties of the DNA fragment could be fully reserved,1.56,1.2,2.34,1.56,"effect of light on antiproliferative activity, Hs27 [2, 12]: not affected by treatment with light; CC50 (in vitro): 12.6 µM"
"C=Cc1ccc2oc(=O)c3c(O)c4cccc(O[C@@H]5OC(C)[C@H](O)[C@H](O)C5O[C@H]5OC(C)[C@H](O)C(OC)[C@H]5O)c4c4oc(=O)c1c2c34 (stereo partly shown) [Vinylchartreusin, 1-Vinylchartreusin]",9.59 to 9.76,0.61,7.05,0.6,7 to 9.4,32.8,clear band shift to a higher molecular mass,3.06,4.8,0.08,0.11,"GI50 ([2]; light or radiation study, Hs27, irradiated with LED cluster, read-out: GI50 value with light, Hs27): 0.5 µg/mL; GI50 ([2]; Hs27, without light, read-out: GI50 value without light, Hs27): 6.8 µg/mL; GI50 with light lower than without light, Hs27 [2, 12]: more than 10 fold; activity relative to chartreusin and homochartreusin, HeLa [9]: only slightly lower than chartreusin and homochartreusin; CC50 [10]: 24.7 µM; GI50 ([3]; HT-29, without light (absence of light), read-out: GI50 without light, HT-29): 7.1 µM; less active than chartreusin, HUVEC ([4]; standard conditions (no photoinduction)): about 4 fold; electrophoretic band shift of DNA fragment, not irradiated ([5]; not irradiated (dark or daylight)): no shift; activity relative to chartreusin and homochartreusin, K562 ([6]; K562, standard conditions): only slightly lower than chartreusin and homochartreusin; antibiotic activity against MRSA relative to chartreusin and ciprofloxacin [11]: as active as the natural product and are even more potent than the reference antibiotic ciprofloxacin"
